# Patent US6355799B1, “Substituted benzene compounds, process for their preparation, and herbicidal and defoliant compositions containing them” (ISK Americas Incorporated, priority 1997, dated 2002)
# Legend:
# Type in all cases: in vivo
# [1] = tested on: field corn (Zea mays L., var. Dekalb 535, CORN); experiment: Pre-emerge test, crop safety; conditions: rating scale 0-100, 14 days after application
# Outline: (§1)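 Compounds in acetone were track-sprayed at 187 l/ha, 15–1000 g ai/ha, onto sandy loam pots. Pre-emerge seeds were sown one day before spraying, with surface watering afterwards. Post-emerge plants were at the 2–3 leaf stage and sprayed with 0.25% v/v non-ionic surfactant. Injury was rated 0–100 at 14 days.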
# [2] = tested on: upland rice (Oryza sp., var. Tebonnet, RICE); experiment: Pre-emerge test, crop safety; conditions: rating scale 0-100, 14 days after application
# Outline: as §1
# [3] = tested on: large crabgrass (Digitaria sanguinalis, DIGSA); experiment: Post-emerge test, greenhouse herbicide activity screening; conditions: rating scale 0-100 (0 no damage, 100 complete death), 14 days after application
# Outline: (§2)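 Compounds in acetone were track-sprayed at 15–1000 g ai/ha: pre-emergence onto soil sown the previous day, then top-watered to incorporate and later bottom-watered; post-emergence onto 2–3 leaf plants with 0.25% v/v surfactant, bottom-watered only. Ratings on a 0–100 phytotoxicity scale were taken at day 14.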
# [4] = tested on: ivyleaf morningglory (Ipomoea hederacea, IPOHE); experiment: as above; conditions: rating scale 0-100 (0 no damage, 100 complete death), 14 days after application
# Outline: as §2
# [5] = tested on: johnsongrass (Sorghum halepense, SORHA); experiment: as above; conditions: rating scale 0-100 (0 no damage, 100 complete death), 14 days after application
# Outline: as §2
# [6] = tested on: barnyardgrass (Echinochloa crus-galli, ECHCG); experiment: as above; conditions: rating scale 0-100 (0 no damage, 100 complete death), 14 days after application
# Outline: as §2
# [7] = tested on: velvetleaf (Abutilon theophrasti, ABUTH); experiment: as above; conditions: rating scale 0-100 (0 no damage, 100 complete death), 14 days after application
# Outline: as §2
# [8] = tested on: green foxtail (Setaria viridis, SETVI); experiment: as above; conditions: rating scale 0-100 (0 no damage, 100 complete death), 14 days after application
# Outline: as §2
# [9] = tested on: redroot pigweed (Amaranthus retroflexus, AMARE); experiment: as above; conditions: rating scale 0-100 (0 no damage, 100 complete death), 14 days after application
# Outline: as §2
# [10] = tested on: sicklepod (Cassia obtusifolia, CASOB); experiment: as above; conditions: rating scale 0-100 (0 no damage, 100 complete death), 14 days after application
# Outline: as §2
# [11] = tested on: lambsquarters (Chenopodium album, CHEAL); experiment: as above; conditions: rating scale 0-100 (0 no damage, 100 complete death), 14 days after application
# Outline: as §2
# [12] = tested on: redroot pigweed (Amaranthus retroflexus, AMARE); experiment: Pre-emerge test, greenhouse herbicide activity screening; conditions: rating scale 0-100, 14 days after application
# Outline: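 Compounds in acetone were track-sprayed at 15-1000 g ai/ha (187 l/ha) on sandy loam pots: pre-emerge one day after seeding, post-emerge at 2-3 leaf stage with 0.25% v/v non-ionic surfactant. Phytotoxicity was rated 14 days later on a 0 (no damage) to 100 (complete death) scale.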
# [13] = tested on: large crabgrass (Digitaria sanguinalis, DIGSA); experiment: as above; conditions: rating scale 0-100, 14 days after application
# Outline: as §2
# [14] = tested on: ivyleaf morningglory (Ipomoea hederacea, IPOHE); experiment: as above; conditions: rating scale 0-100, 14 days after application
# Outline: as §2
# [15] = tested on: johnsongrass (Sorghum halepense, SORHA); experiment: as above; conditions: rating scale 0-100, 14 days after application
# Outline: as §2
# [16] = tested on: barnyardgrass (Echinochloa crus-galli, ECHCG); experiment: as above; conditions: rating scale 0-100, 14 days after application
# Outline: as §2
# [17] = tested on: velvetleaf (Abutilon theophrasti, ABUTH); experiment: as above; conditions: rating scale 0-100, 14 days after application
# Outline: as §2
# [18] = tested on: green foxtail (Setaria viridis, SETVI); experiment: as above; conditions: rating scale 0-100, 14 days after application
# Outline: as §2
# [19] = tested on: sicklepod (Cassia obtusifolia, CASOB); experiment: as above; conditions: rating scale 0-100, 14 days after application
# Outline: as §2
# [20] = tested on: lambsquarters (Chenopodium album, CHEAL); experiment: as above; conditions: rating scale 0-100, 14 days after application
# Outline: as §2
# [21] = tested on: field corn (Zea mays L., var. Dekalb 535, CORN); experiment: Post-emerge test, crop safety; conditions: rating scale 0-100 (0 no damage, 100 complete death), 14 days after application
# Outline: (§3)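 Rating: 0–100 visual injury, 14 DAA. Application: acetone, 187 l/ha, 15–1000 g ai/ha, flat-fan track sprayer with nozzle 40–45 cm above soil or canopy. Post-emerge runs used 0.25% v/v surfactant on 2–3 leaf plants.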
# [22] = tested on: upland rice (Oryza sp., var. Tebonnet, RICE); experiment: Post-emerge test, crop safety; conditions: rating scale 0-100 (0 no damage, 100 complete death), 14 days after application
# Outline: as §3
compound,measurement,setting,value
"COc1c(Cl)cc(F)c(-n2c(=O)cc(C(F)(F)F)n(C)c2=O)c1CC(Cl)C(=O)OCCOc1ccccc1 (single isomer, unassigned) [14-28]","Pre-emerge phytotoxicity rating, crop damage CORN",[1]; 63 g ai/ha,0
same,"Pre-emerge phytotoxicity rating, crop damage CORN",[1]; 250 g ai/ha,20
same,"Pre-emerge phytotoxicity rating, crop damage RICE",[2]; 63 g ai/ha,0
same,"Pre-emerge phytotoxicity rating, crop damage RICE",[2]; 250 g ai/ha,0
same,"Post-emerge Herbicidal Activity, phytotoxicity rating DIGSA",[3]; Rate 63 g ai/ha,20
same,"Post-emerge Herbicidal Activity, phytotoxicity rating DIGSA",[3]; Rate 250 g ai/ha,50
same,"Post-emerge Herbicidal Activity, phytotoxicity rating IPOHE",[4]; Rate 63 g ai/ha,50
same,"Post-emerge Herbicidal Activity, phytotoxicity rating IPOHE",[4]; Rate 250 g ai/ha,70
same,"Post-emerge Herbicidal Activity, phytotoxicity rating SORHA",[5]; Rate 63 g ai/ha,0
same,"Post-emerge Herbicidal Activity, phytotoxicity rating SORHA",[5]; Rate 250 g ai/ha,50
same,"Post-emerge Herbicidal Activity, phytotoxicity rating ECHCG",[6]; Rate 63 g ai/ha,100
same,"Post-emerge Herbicidal Activity, phytotoxicity rating ECHCG",[6]; Rate 250 g ai/ha,100
same,"Post-emerge Herbicidal Activity, phytotoxicity rating ABUTH",[7]; Rate 63 g ai/ha,100
same,"Post-emerge Herbicidal Activity, phytotoxicity rating ABUTH",[7]; Rate 250 g ai/ha,100
same,"Post-emerge Herbicidal Activity, phytotoxicity rating SETVI",[8]; Rate 63 g ai/ha,0
same,"Post-emerge Herbicidal Activity, phytotoxicity rating SETVI",[8]; Rate 250 g ai/ha,30
same,"Post-emerge Herbicidal Activity, phytotoxicity rating AMARE",[9]; Rate 63 g ai/ha,90
same,"Post-emerge Herbicidal Activity, phytotoxicity rating AMARE",[9]; Rate 250 g ai/ha,100
same,"Post-emerge Herbicidal Activity, phytotoxicity rating CASOB",[10]; Rate 63 g ai/ha,30
same,"Post-emerge Herbicidal Activity, phytotoxicity rating CASOB",[10]; Rate 250 g ai/ha,30
same,"Post-emerge Herbicidal Activity, phytotoxicity rating CHEAL",[11]; Rate 63 g ai/ha,95
same,"Post-emerge Herbicidal Activity, phytotoxicity rating CHEAL",[11]; Rate 250 g ai/ha,100
same,"Pre-emerge herbicidal activity, phytotoxicity rating AMARE",[12]; 63 g ai/ha,90
same,"Pre-emerge herbicidal activity, phytotoxicity rating AMARE",[12]; 250 g ai/ha,100
same,"Pre-emerge herbicidal activity, phytotoxicity rating DIGSA",[13]; 63 g ai/ha,0
same,"Pre-emerge herbicidal activity, phytotoxicity rating DIGSA",[13]; 250 g ai/ha,100
same,"Pre-emerge herbicidal activity, phytotoxicity rating IPOHE",[14]; 63 g ai/ha,0
same,"Pre-emerge herbicidal activity, phytotoxicity rating IPOHE",[14]; 250 g ai/ha,0
same,"Pre-emerge herbicidal activity, phytotoxicity rating SORHA",[15]; 63 g ai/ha,0
same,"Pre-emerge herbicidal activity, phytotoxicity rating SORHA",[15]; 250 g ai/ha,40
same,"Pre-emerge herbicidal activity, phytotoxicity rating ECHCG",[16]; 63 g ai/ha,0
same,"Pre-emerge herbicidal activity, phytotoxicity rating ECHCG",[16]; 250 g ai/ha,20
same,"Pre-emerge herbicidal activity, phytotoxicity rating ABUTH",[17]; 63 g ai/ha,0
same,"Pre-emerge herbicidal activity, phytotoxicity rating ABUTH",[17]; 250 g ai/ha,80
same,"Pre-emerge herbicidal activity, phytotoxicity rating SETVI",[18]; 63 g ai/ha,0
same,"Pre-emerge herbicidal activity, phytotoxicity rating SETVI",[18]; 250 g ai/ha,0
same,"Pre-emerge herbicidal activity, phytotoxicity rating CASOB",[19]; 63 g ai/ha,0
same,"Pre-emerge herbicidal activity, phytotoxicity rating CASOB",[19]; 250 g ai/ha,0
same,"Pre-emerge herbicidal activity, phytotoxicity rating CHEAL",[20]; 63 g ai/ha,0
same,"Pre-emerge herbicidal activity, phytotoxicity rating CHEAL",[20]; 250 g ai/ha,95
same,Post-emerge phytotoxicity rating CORN (crop damage),[21]; Rate 63 g ai/ha,10
same,Post-emerge phytotoxicity rating CORN (crop damage),[21]; Rate 250 g ai/ha,70
same,Post-emerge phytotoxicity rating RICE (crop damage),[22]; Rate 63 g ai/ha,0
same,Post-emerge phytotoxicity rating RICE (crop damage),[22]; Rate 250 g ai/ha,40
"COc1c(Cl)cc(F)c(-n2c(=O)cc(C(F)(F)F)n(C)c2=O)c1CC(Cl)C(=O)OCC(Br)CBr (single isomer, unassigned) [14-30]","Pre-emerge phytotoxicity rating, crop damage CORN",[1]; 63 g ai/ha,0
same,"Pre-emerge phytotoxicity rating, crop damage CORN",[1]; 250 g ai/ha,0
same,"Pre-emerge phytotoxicity rating, crop damage RICE",[2]; 63 g ai/ha,0
same,"Pre-emerge phytotoxicity rating, crop damage RICE",[2]; 250 g ai/ha,0
same,"Post-emerge Herbicidal Activity, phytotoxicity rating DIGSA",[3]; Rate 63 g ai/ha,60
same,"Post-emerge Herbicidal Activity, phytotoxicity rating DIGSA",[3]; Rate 250 g ai/ha,100
same,"Post-emerge Herbicidal Activity, phytotoxicity rating IPOHE",[4]; Rate 63 g ai/ha,0
same,"Post-emerge Herbicidal Activity, phytotoxicity rating IPOHE",[4]; Rate 250 g ai/ha,50
same,"Post-emerge Herbicidal Activity, phytotoxicity rating SORHA",[5]; Rate 63 g ai/ha,0
same,"Post-emerge Herbicidal Activity, phytotoxicity rating SORHA",[5]; Rate 250 g ai/ha,50
same,"Post-emerge Herbicidal Activity, phytotoxicity rating ECHCG",[6]; Rate 63 g ai/ha,100
same,"Post-emerge Herbicidal Activity, phytotoxicity rating ECHCG",[6]; Rate 250 g ai/ha,100
same,"Post-emerge Herbicidal Activity, phytotoxicity rating ABUTH",[7]; Rate 63 g ai/ha,60
same,"Post-emerge Herbicidal Activity, phytotoxicity rating ABUTH",[7]; Rate 250 g ai/ha,100
same,"Post-emerge Herbicidal Activity, phytotoxicity rating SETVI",[8]; Rate 63 g ai/ha,0
same,"Post-emerge Herbicidal Activity, phytotoxicity rating SETVI",[8]; Rate 250 g ai/ha,30
same,"Post-emerge Herbicidal Activity, phytotoxicity rating AMARE",[9]; Rate 63 g ai/ha,70
same,"Post-emerge Herbicidal Activity, phytotoxicity rating AMARE",[9]; Rate 250 g ai/ha,100
same,"Post-emerge Herbicidal Activity, phytotoxicity rating CASOB",[10]; Rate 63 g ai/ha,20
same,"Post-emerge Herbicidal Activity, phytotoxicity rating CASOB",[10]; Rate 250 g ai/ha,60
same,"Post-emerge Herbicidal Activity, phytotoxicity rating CHEAL",[11]; Rate 63 g ai/ha,50
same,"Post-emerge Herbicidal Activity, phytotoxicity rating CHEAL",[11]; Rate 250 g ai/ha,100
same,"Pre-emerge herbicidal activity, phytotoxicity rating AMARE",[12]; 63 g ai/ha,70
same,"Pre-emerge herbicidal activity, phytotoxicity rating AMARE",[12]; 250 g ai/ha,100
same,"Pre-emerge herbicidal activity, phytotoxicity rating DIGSA",[13]; 63 g ai/ha,0
same,"Pre-emerge herbicidal activity, phytotoxicity rating DIGSA",[13]; 250 g ai/ha,90
same,"Pre-emerge herbicidal activity, phytotoxicity rating IPOHE",[14]; 63 g ai/ha,0
same,"Pre-emerge herbicidal activity, phytotoxicity rating IPOHE",[14]; 250 g ai/ha,0
same,"Pre-emerge herbicidal activity, phytotoxicity rating SORHA",[15]; 63 g ai/ha,0
same,"Pre-emerge herbicidal activity, phytotoxicity rating SORHA",[15]; 250 g ai/ha,0
same,"Pre-emerge herbicidal activity, phytotoxicity rating ECHCG",[16]; 63 g ai/ha,0
same,"Pre-emerge herbicidal activity, phytotoxicity rating ECHCG",[16]; 250 g ai/ha,0
same,"Pre-emerge herbicidal activity, phytotoxicity rating ABUTH",[17]; 63 g ai/ha,0
same,"Pre-emerge herbicidal activity, phytotoxicity rating ABUTH",[17]; 250 g ai/ha,50
same,"Pre-emerge herbicidal activity, phytotoxicity rating SETVI",[18]; 63 g ai/ha,0
same,"Pre-emerge herbicidal activity, phytotoxicity rating SETVI",[18]; 250 g ai/ha,0
same,"Pre-emerge herbicidal activity, phytotoxicity rating CASOB",[19]; 63 g ai/ha,0
same,"Pre-emerge herbicidal activity, phytotoxicity rating CASOB",[19]; 250 g ai/ha,0
same,"Pre-emerge herbicidal activity, phytotoxicity rating CHEAL",[20]; 63 g ai/ha,0
same,"Pre-emerge herbicidal activity, phytotoxicity rating CHEAL",[20]; 250 g ai/ha,80
same,Post-emerge phytotoxicity rating CORN (crop damage),[21]; Rate 63 g ai/ha,10
same,Post-emerge phytotoxicity rating CORN (crop damage),[21]; Rate 250 g ai/ha,20
same,Post-emerge phytotoxicity rating RICE (crop damage),[22]; Rate 63 g ai/ha,0
same,Post-emerge phytotoxicity rating RICE (crop damage),[22]; Rate 250 g ai/ha,0
